Test systems include MOLT-4; ACHN; NCI-H226; COLO 205; OVCAR-5; LOX IMVI; IGROV-1; U-251; SF-268; OVCAR-8; HOP-62; NCI-H23; SN12C; TK-10; SK-MEL-5; RXF 393.
Common to all, as to test: NCI-60 cell line screen, 48 h

Structures are written as SMILES.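 Each compound was tested at five concentrations against cells in 96-well plates for 48 hours. The concentration for 50% growth inhibition is given as GI50.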 Active and inactive are the calls of the source. Rule as the data show it: active = GI50 up to about 1.1 µM and inactive = higher.

For `O=C(NCCOC(=O)CCCCCCCCC(=O)OCCNC(=O)NC(=O)c1cn(Cc2ccccc2)c(=O)[nH]c1=O)NC(=O)c1cn(Cc2ccccc2)c(=O)[nH]c1=O`, the GI50 with MOLT-4, with ACHN, in the experiment on NCI-H226, with COLO 205, in the experiment with OVCAR-5 and with LOX IMVI was > 100 µM (inactive) throughout. The GI50 with IGROV-1, with U-251, in the experiment with SF-268, in the experiment with OVCAR-8, with HOP-62 and in the experiment on NCI-H23 was > 100 µM (inactive) throughout. Also, the GI50 in the experiment with SN12C, in the experiment with TK-10 and with SK-MEL-5 was > 100 µM (inactive) throughout.
`CC(C)N(C(=O)C12C3C4C5C3C1(C#N)C5C42)C(C)C` (stereo unspecified): the GI50 is > 100 µM (inactive) in the experiment on MOLT-4; > 100 µM (inactive) with ACHN; > 100 µM (inactive) with NCI-H226; > 100 µM (inactive) in the experiment on COLO 205; > 100 µM (inactive) in the experiment with OVCAR-5; 35.3 µM (inactive) in the experiment with LOX IMVI. Moreover, the GI50 with IGROV-1, with U-251, with SF-268, in the experiment on OVCAR-8, in the experiment on HOP-62 and in the experiment with NCI-H23 was > 100 µM (inactive) each time. Also, the GI50 in the experiment with SN12C, in the experiment with TK-10 and with SK-MEL-5 was > 100 µM (inactive) each time.
Take `CCOC(=O)NC(=O)c1cn(CCCOC(=O)CCCCCCCCC(=O)OCCCn2cc(C(=O)NC(=O)OCC)c(=O)[nH]c2=O)c(=O)[nH]c1=O`: the GI50 was 19 µM (inactive) in the experiment on MOLT-4; 21.1 µM (inactive) in the experiment with ACHN; 18.2 µM (inactive) in the experiment on COLO 205; 16.4 µM (inactive) with LOX IMVI; 20.9 µM (inactive) with IGROV-1; 16.7 µM (inactive) with U-251. Moreover, the GI50 in the experiment on OVCAR-8 is 23 µM (inactive); with RXF 393, > 10 µM (inactive); in the experiment with HOP-62, 26 µM (inactive); in the experiment on NCI-H23 it was > 10 µM (inactive); in the experiment with SN12C it was 28.2 µM (inactive); with TK-10, 22.3 µM (inactive). The GI50 in the experiment on SK-MEL-5 is 21.9 µM (inactive).
On to `CC1(C)OC(=O)[C@@](C)([C@H](O)c2ccccc2)O1`, for which the GI50 in the experiment on MOLT-4 was 45.1 µM (inactive); in the experiment on ACHN it was > 100 µM (inactive); with NCI-H226, 27.6 µM (inactive); in the experiment on IGROV-1, 94.6 µM (inactive); in the experiment with U-251, > 100 µM (inactive); in the experiment on SF-268, > 100 µM (inactive). Besides, the GI50 in the experiment on OVCAR-8, in the experiment with RXF 393, with HOP-62, in the experiment with NCI-H23, in the experiment with SN12C and in the experiment with TK-10 was > 100 µM (inactive) throughout. Also, the GI50 in the experiment with SK-MEL-5 is 40.1 µM (inactive).
As to `CCOP1(=O)C=C(C)C(=C(Cl)Cl)C(C)=C1` (stereo unspecified), the GI50 was 5.64 µM (inactive) in the experiment on MOLT-4; 17.1 µM (inactive) in the experiment on ACHN; 2.39 µM (inactive) in the experiment on NCI-H226; 11.7 µM (inactive) in the experiment with COLO 205; 4.36 µM (inactive) with LOX IMVI; 24 µM (inactive) in the experiment with IGROV-1. The GI50 was 13.9 µM (inactive) in the experiment with U-251; 9.57 µM (inactive) with SF-268; 20.7 µM (inactive) with OVCAR-8; 15.6 µM (inactive) in the experiment on RXF 393; 15.4 µM (inactive) in the experiment on HOP-62; 15.8 µM (inactive) with NCI-H23. In addition, the GI50 is 15 µM (inactive) in the experiment on SN12C, 21.3 µM (inactive) in the experiment with TK-10 and 5.9 µM (inactive) in the experiment on SK-MEL-5.
As for `CCOCN1COCN/C1=N/C#N`, the GI50 in the experiment with MOLT-4 was > 100 µM (inactive); in the experiment with ACHN, > 100 µM (inactive); with NCI-H226, > 100 µM (inactive); with COLO 205, 28.3 µM (inactive); in the experiment on OVCAR-5, > 100 µM (inactive); in the experiment on IGROV-1, > 100 µM (inactive). Moreover, the GI50 in the experiment with U-251 is > 100 µM (inactive); with SF-268, > 100 µM (inactive); with OVCAR-8, > 100 µM (inactive); with RXF 393, 0.094 µM (active); in the experiment on HOP-62 it was > 100 µM (inactive); in the experiment on NCI-H23, > 100 µM (inactive). In addition, the GI50 with SN12C, with TK-10 and with SK-MEL-5 was > 100 µM (inactive) in each case.
As to `Cc1ccc(S(=O)(=O)OC(COC(=O)c2ccccc2)C(OS(=O)(=O)c2ccc(C)cc2)C(OS(=O)(=O)c2ccc(C)cc2)C(COC(=O)c2ccccc2)OS(=O)(=O)c2ccc(C)cc2)cc1` (stereo unspecified), the GI50 in the experiment with MOLT-4 is > 100 µM (inactive); in the experiment on ACHN it was > 100 µM (inactive); in the experiment with COLO 205 it was > 100 µM (inactive); in the experiment with LOX IMVI, > 100 µM (inactive); in the experiment on IGROV-1, > 10 µM (inactive); in the experiment on U-251 it was > 100 µM (inactive). The GI50 in the experiment with SF-268, in the experiment with OVCAR-8, in the experiment on RXF 393, in the experiment on HOP-62, in the experiment on NCI-H23 and with SN12C was > 100 µM (inactive) throughout. For the same compound, the GI50 in the experiment with TK-10 and in the experiment with SK-MEL-5 was > 100 µM (inactive) in each case.
For the compound `CC(C)CCCC(C)[C@H]1CCC2[C@@H]3CCC4Nc5c(cnn5-c5ccccc5)C[C@]4(C)C3CC[C@@]21C` (stereo partly specified), the GI50 in the experiment with MOLT-4 was 3.32 µM (inactive); with ACHN, 29.8 µM (inactive); with NCI-H226, 17.9 µM (inactive); with COLO 205, 8.75 µM (inactive); in the experiment on OVCAR-5, 50.1 µM (inactive); in the experiment with IGROV-1, > 100 µM (inactive). The GI50 was 12.5 µM (inactive) with U-251; 85.3 µM (inactive) with SF-268; 61 µM (inactive) in the experiment with OVCAR-8; 2.78 µM (inactive) in the experiment on RXF 393; 14.3 µM (inactive) with HOP-62; 26.1 µM (inactive) with NCI-H23. The GI50 with SN12C is 83 µM (inactive); in the experiment with TK-10, > 100 µM (inactive); in the experiment on SK-MEL-5 it was 85.1 µM (inactive).
For `COc1cccc(/C=C\c2cc(OC)c(OC)c(OC)c2)c1`, the GI50 in the experiment with MOLT-4 is 0.379 µM (active); with ACHN it was 5.79 µM (inactive); with NCI-H226, 0.745 µM (active); with COLO 205, 0.807 µM (active); with OVCAR-5 it was 22.2 µM (inactive); with IGROV-1, 3.15 µM (inactive). In addition, the GI50 with U-251 is 0.407 µM (active); with SF-268 it was 3.66 µM (inactive); with OVCAR-8, 3.49 µM (inactive); in the experiment with HOP-62 it was 1.51 µM (inactive); in the experiment with NCI-H23, 1.32 µM (inactive); with SN12C it was 4.08 µM (inactive).
Turning to `Cc1cc(C)c(C(=O)/C=C/c2ccccc2)c(C)c1`, the GI50 in the experiment on MOLT-4 is 24.9 µM (inactive); in the experiment with ACHN it was 38.4 µM (inactive); in the experiment on NCI-H226 it was 22.8 µM (inactive); in the experiment with COLO 205 it was 29 µM (inactive); in the experiment on IGROV-1, 77.4 µM (inactive); with U-251 it was 15.9 µM (inactive). The GI50 with SF-268 was 20.6 µM (inactive); in the experiment with OVCAR-8 it was 15.5 µM (inactive); in the experiment on RXF 393 it was 15.8 µM (inactive); with HOP-62, 34.3 µM (inactive); in the experiment with NCI-H23, 26.4 µM (inactive); in the experiment with SN12C, 14.4 µM (inactive). Besides, the GI50 in the experiment on TK-10 was 47.5 µM (inactive); in the experiment on SK-MEL-5 it was > 100 µM (inactive).

(Values after ChEMBL document CHEMBL1201862, “PubChem BioAssay data set” (2004).)
